Drawing on ChEMBL document CHEMBL1130452, “L-373,890, An achiral, noncovalent, subnanomolar thrombin inhibitor” (Bioorg Med Chem Lett, 1997), this text covers Ki for ten compounds.

The target of one assay is Serine protease 1 (Homo sapiens, UniProt P07477). Kind of assay: Binding affinity against human trypsin.
For assay [1], the target named is T1, Prothrombin (Homo sapiens, UniProt P00734). Kind of assay: Binding affinity against human thrombin.
In assay [2] the target is T1, Prothrombin. The assay is described as follows: Binding affinity was evaluated against human thrombin.
The target of the next assay is Chymotrypsinogen A (Bos taurus, UniProt P00766). Kind of assay: Binding affinity against serine protease […]. Format: cell-free.
The target in another assay is Plasma kallikrein (Homo sapiens, UniProt P03952). The assay is described as follows: Binding affinity against serine protease plasma kallikrein. Format: cell-free.
Assay [3] has as its target Tissue-type plasminogen activator (Homo sapiens, UniProt P00750). Kind of assay: Binding affinity against serine protease Tissue type plasminogen activator.
Assay [4] has as its target Vitamin K-dependent protein C (Homo sapiens, UniProt P04070). The assay is described as follows: Binding affinity against serine protease Activated protein C.
Another assay concerns the target Plasminogen (Rattus norvegicus, UniProt Q01177). Kind of assay: Binding affinity against serine protease plasmin.

Sequence of Serine protease 1 (P07477 whole entry): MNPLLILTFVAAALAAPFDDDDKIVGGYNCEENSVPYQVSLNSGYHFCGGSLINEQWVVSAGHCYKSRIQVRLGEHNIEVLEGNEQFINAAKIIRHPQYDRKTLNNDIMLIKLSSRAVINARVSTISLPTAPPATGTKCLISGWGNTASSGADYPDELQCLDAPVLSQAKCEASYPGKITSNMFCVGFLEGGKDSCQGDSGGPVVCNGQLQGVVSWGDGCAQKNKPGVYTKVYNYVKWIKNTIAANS
Sequence of Plasminogen (Q01177 97-581 limits assumed): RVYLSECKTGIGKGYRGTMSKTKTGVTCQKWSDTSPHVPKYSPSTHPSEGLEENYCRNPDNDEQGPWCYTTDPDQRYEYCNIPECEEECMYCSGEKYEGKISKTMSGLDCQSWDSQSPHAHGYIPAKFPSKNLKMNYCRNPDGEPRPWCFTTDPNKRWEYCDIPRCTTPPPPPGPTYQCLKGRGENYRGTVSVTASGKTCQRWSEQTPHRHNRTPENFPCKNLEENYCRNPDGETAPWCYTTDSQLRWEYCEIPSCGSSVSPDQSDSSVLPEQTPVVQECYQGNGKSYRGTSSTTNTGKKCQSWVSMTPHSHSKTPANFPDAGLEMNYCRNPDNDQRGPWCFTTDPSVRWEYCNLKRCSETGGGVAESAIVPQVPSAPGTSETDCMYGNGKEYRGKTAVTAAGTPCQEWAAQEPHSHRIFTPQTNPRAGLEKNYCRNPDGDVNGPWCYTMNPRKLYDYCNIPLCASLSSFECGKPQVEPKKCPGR
Sequence of Plasminogen (Q01177 582-812 limits assumed): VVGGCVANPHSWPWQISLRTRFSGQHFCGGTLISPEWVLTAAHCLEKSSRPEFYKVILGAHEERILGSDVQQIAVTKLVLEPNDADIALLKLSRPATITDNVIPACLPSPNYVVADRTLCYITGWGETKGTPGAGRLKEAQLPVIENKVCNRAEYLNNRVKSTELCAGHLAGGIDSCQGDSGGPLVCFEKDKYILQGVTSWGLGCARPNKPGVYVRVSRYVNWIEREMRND
Sequence of Plasma kallikrein (P03952 20-390 limits assumed): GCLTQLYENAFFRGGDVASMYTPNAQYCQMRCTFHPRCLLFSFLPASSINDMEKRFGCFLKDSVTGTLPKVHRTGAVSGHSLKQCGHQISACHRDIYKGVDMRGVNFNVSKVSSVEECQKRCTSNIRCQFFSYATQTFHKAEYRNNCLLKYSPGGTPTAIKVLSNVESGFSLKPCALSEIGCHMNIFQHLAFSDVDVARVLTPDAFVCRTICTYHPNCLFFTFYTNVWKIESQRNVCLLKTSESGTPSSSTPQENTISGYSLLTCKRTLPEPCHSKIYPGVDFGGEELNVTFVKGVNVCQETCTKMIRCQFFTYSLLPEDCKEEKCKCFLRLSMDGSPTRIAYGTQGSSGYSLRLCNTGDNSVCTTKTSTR
Sequence of Plasma kallikrein (P03952 391-638 limits assumed): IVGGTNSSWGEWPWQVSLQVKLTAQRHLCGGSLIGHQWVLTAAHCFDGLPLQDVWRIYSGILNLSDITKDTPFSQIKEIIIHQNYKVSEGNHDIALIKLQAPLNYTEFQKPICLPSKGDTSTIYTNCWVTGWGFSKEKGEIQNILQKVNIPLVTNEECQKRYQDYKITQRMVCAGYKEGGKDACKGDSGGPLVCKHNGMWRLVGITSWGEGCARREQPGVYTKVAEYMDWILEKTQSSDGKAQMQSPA
Sequence of Vitamin K-dependent protein C (P04070 43-197 limits assumed): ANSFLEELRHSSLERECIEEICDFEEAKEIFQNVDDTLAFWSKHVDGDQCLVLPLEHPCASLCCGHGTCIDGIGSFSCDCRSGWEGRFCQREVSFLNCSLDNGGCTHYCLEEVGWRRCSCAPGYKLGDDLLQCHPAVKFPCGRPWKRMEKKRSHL
Sequence of Vitamin K-dependent protein C (P04070 212-461 limits assumed): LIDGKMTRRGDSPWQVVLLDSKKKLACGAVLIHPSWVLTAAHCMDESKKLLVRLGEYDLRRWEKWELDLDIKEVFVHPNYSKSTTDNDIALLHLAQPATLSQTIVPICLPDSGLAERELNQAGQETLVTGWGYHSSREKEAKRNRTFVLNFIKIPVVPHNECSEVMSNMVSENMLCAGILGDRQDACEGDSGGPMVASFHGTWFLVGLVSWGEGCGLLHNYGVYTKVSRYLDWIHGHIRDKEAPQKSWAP
Sequence of Tissue-type plasminogen activator (P00750 whole entry): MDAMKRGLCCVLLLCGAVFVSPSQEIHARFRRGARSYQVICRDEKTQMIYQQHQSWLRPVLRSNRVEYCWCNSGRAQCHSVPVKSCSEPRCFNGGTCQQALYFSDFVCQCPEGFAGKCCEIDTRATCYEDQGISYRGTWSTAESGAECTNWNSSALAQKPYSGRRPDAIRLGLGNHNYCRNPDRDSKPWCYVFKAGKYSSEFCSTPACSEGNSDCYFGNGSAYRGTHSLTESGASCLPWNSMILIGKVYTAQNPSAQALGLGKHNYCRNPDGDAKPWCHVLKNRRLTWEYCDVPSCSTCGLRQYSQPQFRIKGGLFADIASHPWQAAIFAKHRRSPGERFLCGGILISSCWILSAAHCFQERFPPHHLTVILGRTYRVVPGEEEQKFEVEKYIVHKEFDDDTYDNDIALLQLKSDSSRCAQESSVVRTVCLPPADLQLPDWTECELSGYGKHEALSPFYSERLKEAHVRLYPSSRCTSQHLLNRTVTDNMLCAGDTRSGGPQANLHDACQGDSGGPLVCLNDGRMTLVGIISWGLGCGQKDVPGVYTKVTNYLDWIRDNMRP

As a reminder, the Ki is the equilibrium dissociation constant of an inhibitor or competing ligand from its target. Low values mean higher affinity, high ones lower affinity. Take `Cc1ccc(NS(=O)(=O)Cc2ccccc2)c(=O)n1CC(=O)NC[C@H]1CC[C@H](N)CC1`: the affinity on Serine protease 1 corresponds to a Ki of 3000 nM.
`Cc1ccc(NC(=O)CCc2ccccc2)c(=O)n1CC(=O)NCC1CCN(C(=N)N)CC1`: the inhibition constant Ki on Serine protease 1 is 940 nM; on Prothrombin [1], 95 nM.
Taken in the same sequence, the figures for `Cc1ccc(S(=O)(=O)Nc2ccc(C)n(CC(=O)NCC3CCN(C(=N)N)CC3)c2=O)cc1` were 140 nM and 29 nM.
Compound `CN[C@H](Cc1ccccc1)C(=O)N1CCCC1C(=O)NC[C@H]1CC[C@H](N)CC1` (some centres not stated) had a Ki at Prothrombin [2] of 5 nM.
On to `Cc1ccc(NC(=O)OCc2ccccc2)c(=O)n1CC(=O)NCC1CCN(C(=N)N)CC1`, for which the inhibition constant Ki on Serine protease 1 was 350 nM; at Prothrombin [1] it was 77 nM.
Taken in the same sequence, the figures for `Cc1ccc(NC(=O)CC(c2ccccc2)c2ccccc2)c(=O)n1CC(=O)NCC1CCN(C(=N)N)CC1` were 890 nM and 166 nM.
The like results for `Cc1ccc(S(=O)(=O)Nc2ccc(C)n(CC(=O)NC[C@H]3CC[C@H](N)CC3)c2=O)cc1` were, in that order, 2100 nM and 47 nM.
Taken in the same sequence, the figures for `Cc1ccc(NCCc2ccccc2)c(=O)n1CC(=O)NC[C@H]1CC[C@H](N)CC1` were 2200 nM and 47 nM.
For `Cc1ccc(NC(=O)c2ccccc2)c(=O)n1CC(=O)NCC1CCN(C(=N)N)CC1`, the inhibition constant (Ki) on Serine protease 1 was 1500 nM; on Prothrombin [1], 690 nM.
Turning to `Cc1ccc(NS(=O)(=O)Cc2ccccc2)c(=O)n1CC(=O)NCC1CCN(C(=N)N)CC1`, the Ki on Chymotrypsinogen A was > 20000 nM; at Plasma kallikrein, > 20000 nM; in assay [3] it was > 20000 nM; in assay [4], > 20000 nM; on Serine protease 1 it was 570 nM; at Plasminogen it was > 20000 nM.
